In a melting point compilation (Tetko et al.):

| SMILES | melting point [°C] |
| --- | --- |
| CC=C(C)C(=O)O | 64.5 |
| N#CC1(N=NC2(C#N)CCCCC2)CCCCC1 | 116 |
| COC1OC(=O)c2ccccc21 (stereo not drawn) | 43.7 to 44.4 |
| CCOC(=O)CC[C@H](NC(=O)c1ccc([N+](=O)[O-])cc1)C(=O)OCC | 92 to 95 |
| Cc1cc(Br)ccc1N=C=S | 45 to 46 |
| COc1ccc(C(O)C(C)(C)C(=O)O)cc1 (stereo not drawn) | 115 to 117 |
| C#CCCCCCCCCC | -25 |
| O=C(O)CN(CC(=O)O)Cc1cc2c(cc1O)Oc1cc(O)c(CN(CC(=O)O)CC(=O)O)cc1C21OC(=O)c2ccccc21 | 200 |
| CCCCCCCCCCCC(CCCCCCCC)c1ccccc1 (stereo not drawn) | 17.9 |
| CCOP(=S)(OCC)SC1OCCOC1SP(=S)(OCC)OCC (stereo not drawn) | -2 |
| COC(=O)c1cc2c(OC)cccc2[nH]1 | 140 to 142 |
| O=C1CC[C@H](C(=O)O)O1 | 69 to 72 |
| CCOC(=O)C1=C(C)NC(=O)NC1c1cccc([N+](=O)[O-])c1 (stereo not drawn) | 228 |
| NNC(=O)COc1ccc(OC(F)(F)F)cc1 | 130 to 133 |
| O=C(O)Cc1c(F)ccc(F)c1F | 111 to 114 |
| C/C=C/Cl | -99 |
| O=C(NCO)c1cccnc1 | 142 |
| CCOC(=O)C(C)(C#N)c1ccccc1[N+](=O)[O-] (stereo not drawn) | 68 |
| CC(C)OC(=O)C1(S(=O)(=O)c2ccc([N+](=O)[O-])cc2)CC1 | 123 |
| O=S1(=O)OC(c2ccc(O)c(Cl)c2)(c2ccc(O)c(Cl)c2)c2ccccc21 | 261 |
| Cc1nn(C)c(N2CCOCC2)c1C=O | 74 to 76 |
| OC(c1ccccc1)C(O)(c1ccccc1)c1ccccc1 (stereo not drawn) | 163 |
| NNC(=O)c1ccc(Br)cc1Cl | 173 to 175 |
| CC1(C)C2CCC13CS(=O)(=O)N=C3C2 (stereo not drawn) | 227 |
| O=C(NC(=O)c1c(F)cccc1F)Nc1cc(Cl)c(OC(F)(F)C(F)C(F)(F)F)cc1Cl (stereo not drawn) | 169 |
| c1ccc(OCc2nnc3sc(-c4cccc5ccccc45)nn23)cc1 | 134 |

| SMILES | melting point [°C] |
| --- | --- |
| CCN(Cc1ccc(Cl)nc1)C(=C[N+](=O)[O-])NC | 83.5 |
| N#CCc1ccc(C(F)(F)F)cc1[N+](=O)[O-] | 40 |
| Cc1ccc(-c2onc(C(=O)c3ccc([N+](=O)[O-])cc3)c2S(=O)(=O)c2ccccc2)cc1 | 225 to 227 |
| OCc1c(F)ccc(F)c1Cl | 47 |
| Cc1ccc2cnccc2c1 | 85.5 |
| Cc1cccc(C)c1NC(=O)C(C)N (stereo not drawn) | 256 |
| ON=C(Cc1ccccc1)c1cccc2ccccc12 | 150 |
| CC/C=C\C(C)(C)C | -137 |
| CCCCCCC(N)C(=O)O (stereo not drawn) | 270 |
| Nc1c(F)ccc(F)c1Cl | 29 |
| COC(=O)NS(=O)(=O)c1ccc(N)cc1 | 230 |
| Sc1nc(-c2ccccc2)c(-c2ccccc2)[nH]1 | 300 |
| CCCCCCCCC=CCCCCCCCC(=O)OC(=O)CCCCCCCC=CCCCCCCCC | 22 to 23 |
| CC(C)(C)c1cc(C(C)(C)C)c(O)cc1O | 120 to 121 |
| Clc1ccc2c(c1)Cc1cc(Cl)ccc1-2 | 128 |
| C[N+](C)(C)CCOP(=O)([O-])OCC(O)CO (stereo not drawn) | 142 |
| CC(=O)N1CCc2cc(Br)ccc21 | 124 to 127 |
| CCCSc1ncccc1C(=O)Cl | 43.4 |
| CC1(C)C2CCC(C2)C12COC(=O)N2 (single isomer, unassigned; (-)) | 227 to 229 |
| OCC(F)(F)C(F)(F)C(F)(F)C(F)(F)C(F)(F)C(F)(F)C(F)(F)C(F)(F)C(F)(F)C(F)F | 95 to 97 |
| CNC(=O)Oc1ccc(C)c(C)c1 | 79.5 |
| O=C1C=CC(=O)[C@@H]2Cc3ccccc3C[C@H]12 | 127 to 128 |
| Cc1cc2c(o1)-c1c(oc3c(I)cc(I)cc13)CCC2(C)c1ccccc1 (stereo not drawn) | 175 |
| COc1c(C#N)cc(C)c2c1CCC2 | 62 to 63 |
| Cc1cccc2c(O)cc(C(F)(F)F)nc12 | 128 to 131 |
| Cc1nc(Br)ccc1Br | 38 |

| SMILES | melting point [°C] |
| --- | --- |
| COC(=O)CCCCCCC(=O)O | 17 to 19 |
| CCC(N)CO (stereo not drawn) | -2 |
| C1CCCCCCCC1 | 11 |
| O=C1C(=O)N(c2ccccc2)c2ccccc21 | 141 |
| O=C1C=CC(=O)C(Cl)=C1 | 52 to 57 |
| CCCCCCCCC1CCCC1 | -44 |
| O=C(O)C1(C(=O)O)CCC1 | 157 to 161 |
| COc1ccccc1Cl | -26.8 |
| O=Cc1ccccc1-c1cccnc1 | 68 to 69 |
| O=C(O)CNC(=O)c1ccc([N+](=O)[O-])cc1 | 130 |
| C/C(=N/NC(N)=S)C(=O)Nc1ccc(Br)cc1 | 228 to 230 |
| Brc1ccc(-c2cnco2)cc1 | 78 to 79 |
| O=C1CCCN1c1ccc(F)cc1 | 55 to 58 |
| Cn1cccc1-c1nnc(S)n1-c1ccc(Cl)cc1Cl | 252 to 256 |
| NS(=O)(=O)c1cc2c(s1)SCCC2=O | 222 |
| O=C1NN=C(C(F)(F)F)C1=NNc1cc(-c2ccccc2)n[nH]1 | 271 |
| Ic1cccs1 | -40 |
| CC(=O)C1CCC2C3CCC4=CC(=O)CCC4(C)C3CCC12C (stereo not drawn) | 128 to 132 |
| CC(=O)C1C(=O)c2ccccc2CC1c1ccccc1 (stereo not drawn) | 67 |
| CC=CC=C(C)C | -74.2 |
| CCOC(=O)CSCCC1NC(C(=O)O)CS1 (stereo not drawn) | 142 |
| CCC(=O)Oc1ccccc1 | 20 |
| Nc1ncnc2c1ncn2C1OC(CO)C(OP(=O)(O)O)C1O (stereo not drawn) | 197 |
| CC(C)(C)N(NC(=O)c1ccccc1)C(=O)c1c(F)cccc1F | 194 |
| NCCCC1C=NNC1=O (stereo not drawn) | 216 |
| CC(=O)c1c(C)c[nH]c1C | 138 |

| SMILES | melting point [°C] |
| --- | --- |
| CCCCCCCCC=CCCCCCCCCCCCCO | 35 |
| CCCCCCCCCCCCCCCCCCC(C)c1ccccc1 (stereo not drawn) | 29 |
| COC(=O)c1c(OC)c(OC)c(C(=O)OC)c(C(=O)OC)c1OC | 52 to 55 |
| CCOC(=O)C(C#N)=NNc1cccc([N+](=O)[O-])c1 | 155 to 156 |
| NC(=S)c1ncc(C(F)(F)F)cc1N1CCCC1 | 176 to 180 |
| CN(c1c(F)c(F)c(F)c(F)c1F)N(O)O | 39.5 |
| C=CCn1c(SC)nc2ccccc2c1=O | 75 to 77 |
| CC(C)CCOc1ccc(NC(=S)Nc2ccc(OCCC(C)C)cc2)cc1 | 146 |
| O=C(O)CSc1ccccc1C(=O)O | 218 |
| CCOC(=O)c1cc2cc([N+](=O)[O-])ccc2[nH]1 | 220 to 225 |
| N#C/C(=C/c1ccco1)c1nc(-c2ccc(Br)cc2)cs1 | 174 |
| Cc1ccnc2c1ccc1cccnc12 | 145 |
| CCOC(=O)c1nn(-c2ccc(C)cc2)c(C)c1C(=O)C1=NOC2C(=O)N(c3ccc(C(=O)O)cc3)C(=O)C12 (stereo not drawn) | 281 |
| CSc1nc(NS(=O)(=O)c2ccc(C)cc2)c(C#N)c(-c2ccccc2)c1Br | 212 to 216 |
| CCCN(CCC)S(=O)(=O)c1ccc(C(=O)O)cc1 | 198 |
| CC(=O)Nc1ccccc1OC(F)(F)F | 68 to 70 |
| O=C(O)c1ccc(N/N=C(\C(=O)c2cccs2)C(=O)C(F)(F)F)cc1 | 219 |
| NC(=NO)c1ccc(Oc2ccc(F)cc2F)c([N+](=O)[O-])c1 | 164 to 167 |
| O=[N+]([O-])c1ccc(/C=C/C=C/C=C/c2ccc([N+](=O)[O-])cc2)cc1 | 240 |
| C/C(=N\c1ccccc1O)c1c(O)c2ccccc2n(-c2ccccc2)c1=O | 268 to 269 |
| CC(C)(C#N)Nc1nc(Cl)nc(NC2CC2)n1 | 170 |
| NC(=S)C1=Cc2ccccc2OC1 | 172 to 174 |
| c1ccc2c(c1)OCCOCCNCCOCCO2 | 147 to 149 |
| CCOP(=O)(NC(C)C)Oc1ccc(SC)c(C)c1 (stereo not drawn) | 49 |
| C[C@]12CCC(=O)CC1CCC1=C2CC[C@]2(C)C(=O)CC[C@@H]12 (stereo partly drawn) | 148 |
| COC(=O)c1sc2ccccc2c1Cl | 81 |

| SMILES | melting point [°C] |
| --- | --- |
| CC(=O)c1ccnc(Cl)c1 | 36.5 to 39 |
| CC(=O)c1ccc(CO)cc1 | 54 |
| NC(=S)c1ccc2nonc2c1 | 132 to 135 |
| C#CCN1C(=O)CN=C(c2ccccc2)c2cc(Cl)ccc21 | 141 |
| O=C(CBr)c1ccc(Cl)c([N+](=O)[O-])c1 | 83 to 85 |
| O=C(O)CN(CCO)CCN(CC(=O)O)CC(=O)O | 212 to 214 |
| Fc1ccc2c(c1)Cc1ccccc1-2 | 98 |
| Cc1ccc(Cc2c(N)nn3c(C)cc(C)nc23)cc1 | 178 to 179 |
| Cc1c(C)n2c(CBr)c(C)c(=O)n2c1=O | 152 |
| N#Cc1ccc(O)c(Cl)c1 | 150 to 153 |
| Cc1ccc(C#N)c([N+](=O)[O-])c1 | 97 |
| CC(=O)Nc1ccc(C2=NN(c3ccccc3)C(=O)/C2=C/C2C(=O)N(c3ccccc3)N=C2c2ccc(NC(C)=O)cc2)cc1 (stereo not drawn) | 317 |
| NNC(=O)c1ccc(I)cc1 | 173 to 175 |
| Cc1ccc(C(=O)c2ccccc2C(=O)O)cc1 | 146 |
| Brc1cc(Br)c(Br)c(Br)c1 | 99.5 |
| Brc1nc(Br)c(Br)c(Br)c1Br | 206 to 208 |
| CCCCCCC(O)CCC (stereo not drawn) | -11 |
| CC(Oc1ccc(Cl)cc1Cl)C(=O)O (stereo not drawn) | 122 |
| CCCCOc1ccc(-c2nnc3n2NC(c2ccco2)S3)cc1 (stereo not drawn) | 127 |
| CC12C=CC3=C4CCC(=O)C=C4CCC3C1CCC2O (stereo not drawn) | 93 |
| CCCCC(=O)CCCC | -3.8 |
| NC(=NO)c1cc(F)c(F)cc1F | 91 to 92 |
| O=C(O)C=Cc1c(F)cccc1Cl | 163 to 165 |
| O=Cc1ccc2oc(C(=O)c3ccc(Br)cc3)cc2c1 | 177 to 178 |
